Test systems include MOLT-4 leukemia; 786-0 renal; NCI-H460 lung; SF-268 CNS; HOP-62 NSCLC; OVCAR-4 ovarian; NCI-H522 lung; A549 NSCLC; UO-31 renal; SK-OV-3 ovarian.
Experiment in all cases: DTP human tumour cell line panel, 48 h

Data on 14 compounds can be found in PubChem BioAssay (NCI).

Broadly, the TGI is the concentration at which net growth stops. By GI50 is commonly meant the concentration at which growth is held to half of that of the control.

Structures are written as SMILES. “And” between values parts separate entries of the source, which are not always exact repeats. Equal values may be shown once.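 Protocol summary: plate cells (96-well), add compound at 5 concentrations, incubate 48 h, interpolate endpoints linearly. At the GI50, growth is halved. The concentration for full growth arrest is given as TGI.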

`CCN(CC)CCNc1n[n+]([O-])c2ccccc2[n+]1[O-]`: the TGI in the assay on MOLT-4 leukemia is 5.12 µM and 5.07 µM; with 786-0 renal, 64.5 µM and 21 µM; with NCI-H460 lung, 38.4 µM and 12.6 µM; with SF-268 CNS it was 48.4 µM and > 100 µM; in the assay with HOP-62 NSCLC, 20 µM; in the assay on OVCAR-4 ovarian, 11.2 µM and 73.6 µM. The TGI was 17.3 µM and 22.9 µM in the assay on NCI-H522 lung; 22.3 µM and 29.6 µM in the assay on A549 NSCLC; > 79.4 µM and 57.1 µM in the assay with UO-31 renal; 32.4 µM in the assay with SK-OV-3 ovarian. The GI50 in the assay on NCI-H460 lung is 3.94 µM and 1.54 µM; in the assay on NCI-H522 lung it was 3.85 µM and 7.95 µM; in the assay on A549 NSCLC, 5.07 µM and 10.2 µM.
Take `O=[N+]([O-])c1nccn1COCCBr`: the TGI with MOLT-4 leukemia, in the assay with 786-0 renal, in the assay with NCI-H460 lung, in the assay with SF-268 CNS, in the assay with HOP-62 NSCLC and with OVCAR-4 ovarian was > 100 µM in each case. Further, the TGI in the assay with NCI-H522 lung, with A549 NSCLC, with UO-31 renal and with SK-OV-3 ovarian was > 100 µM throughout.
`COC(=O)CCC1=C(C)/C(=C/c2[nH]c(-c3ccc[nH]3)cc2OC)N=C1C`: the GI50 with MOLT-4 leukemia is 0.368 µM; with 786-0 renal it was 0.653 µM; in the assay on NCI-H460 lung, 0.441 µM; in the assay on SF-268 CNS, 0.708 µM; in the assay with HOP-62 NSCLC, 0.454 µM; with OVCAR-4 ovarian, 0.626 µM. For the same compound, the GI50 in the assay on NCI-H522 lung was 0.413 µM; in the assay on A549 NSCLC, 0.565 µM; in the assay on UO-31 renal, 0.556 µM; in the assay on SK-OV-3 ovarian it was 3.93 µM. For the same compound, the TGI with MOLT-4 leukemia was 7.08 µM; in the assay on 786-0 renal it was 3.72 µM; in the assay on NCI-H460 lung, 4.88 µM; in the assay on SF-268 CNS, 7.01 µM; in the assay on HOP-62 NSCLC, 1.53 µM; in the assay with OVCAR-4 ovarian, 2.12 µM. The TGI turned out to be 1.78 µM in the assay on NCI-H522 lung, 6.32 µM with A549 NSCLC, 2.92 µM in the assay on UO-31 renal and 11.6 µM in the assay on SK-OV-3 ovarian.
In the case of `CN[C@@H]1C[C@H]2O[C@@](C)([C@@H]1OC)n1c3ccccc3c3c4c(c5c6ccccc6n2c5c31)C(=O)N[C@@H]4O`, the GI50 in the assay on MOLT-4 leukemia is 0.0228 µM; in the assay with SF-268 CNS it was 0.008 µM; in the assay on HOP-62 NSCLC, 0.0401 µM; with OVCAR-4 ovarian, 0.0286 µM; with A549 NSCLC, 0.0328 µM; with SK-OV-3 ovarian, 0.0467 µM. Further, the TGI is 0.0981 µM and 0.654 µM in the assay on MOLT-4 leukemia; 0.172 µM in the assay with 786-0 renal; 0.3 µM and 1.47 µM with NCI-H460 lung; 0.17 µM and 0.334 µM in the assay on HOP-62 NSCLC; 0.197 µM and 0.382 µM in the assay on NCI-H522 lung; 0.3 µM and 2.87 µM in the assay on A549 NSCLC. For the same compound, the TGI in the assay with UO-31 renal was 0.0645 µM; in the assay with SK-OV-3 ovarian, 0.187 µM and 0.28 µM.
For `O=c1ccc(=O)c2c(=O)c3ccccc3c(=O)c1=2`, the TGI in the assay with MOLT-4 leukemia, in the assay with 786-0 renal, in the assay with NCI-H460 lung, in the assay on SF-268 CNS, with HOP-62 NSCLC and in the assay on OVCAR-4 ovarian was > 100 µM throughout. Besides, the TGI with NCI-H522 lung, in the assay with A549 NSCLC, in the assay on UO-31 renal and in the assay on SK-OV-3 ovarian was > 100 µM throughout.
As to `COc1ccc(Cl)cc1Nc1nc(C(F)(F)F)ccc1C(=O)N/N=C/c1cc(OC)c(OC)c(OC)c1`, the GI50 in the assay on MOLT-4 leukemia is 0.642 µM; with 786-0 renal it was 1.78 µM; with NCI-H460 lung, 2.68 µM; in the assay on SF-268 CNS, 1.32 µM; in the assay on HOP-62 NSCLC, 5.17 µM; with OVCAR-4 ovarian it was 1.32 µM. Further, the GI50 with NCI-H522 lung is 2.29 µM; with A549 NSCLC, 2.64 µM; in the assay on UO-31 renal, 1.24 µM; in the assay with SK-OV-3 ovarian, 3.04 µM. Besides, the TGI is 2.82 µM with MOLT-4 leukemia; 3.68 µM in the assay with 786-0 renal; 10.1 µM in the assay on NCI-H460 lung; 5.75 µM in the assay with SF-268 CNS; 20.5 µM with HOP-62 NSCLC; > 100 µM with OVCAR-4 ovarian. In addition, the TGI was 5.83 µM in the assay on NCI-H522 lung, 6.64 µM in the assay with A549 NSCLC, 3.79 µM with UO-31 renal and 15 µM in the assay on SK-OV-3 ovarian.
Regarding `CSc1ccc(/C=C2\C=C(CC(=O)NCc3ccc(C(=O)c4ccccc4)cc3)c3cc(F)ccc32)cc1`, the GI50 in the assay with MOLT-4 leukemia was 0.15 µM; in the assay on 786-0 renal it was 0.125 µM; with NCI-H460 lung, 0.0377 µM; in the assay with SF-268 CNS it was 0.138 µM; with HOP-62 NSCLC, 0.0633 µM; with OVCAR-4 ovarian, 0.127 µM. The GI50 with NCI-H522 lung was 0.0287 µM; with A549 NSCLC, 0.137 µM; in the assay on UO-31 renal, 0.36 µM; in the assay on SK-OV-3 ovarian, 0.0399 µM. In addition, the TGI with MOLT-4 leukemia is > 36.7 µM; with 786-0 renal, 2.66 µM; with NCI-H460 lung, 4.39 µM; with SF-268 CNS, 15.1 µM; in the assay with HOP-62 NSCLC it was 3.38 µM; in the assay with OVCAR-4 ovarian, 20.2 µM. Besides, the TGI in the assay on NCI-H522 lung stood at 0.211 µM; in the assay with A549 NSCLC it was 4.8 µM; with UO-31 renal, 13 µM; in the assay with SK-OV-3 ovarian, 0.704 µM.
For `Cc1nc(C(N)=S)sc1C(=O)C/C(=N/N)C(=O)Nc1cccc(Cl)c1C`, the TGI in the assay on MOLT-4 leukemia, in the assay on 786-0 renal, in the assay on NCI-H460 lung, with SF-268 CNS, with HOP-62 NSCLC and in the assay on OVCAR-4 ovarian was > 100 µM in each case. Further, the TGI in the assay on NCI-H522 lung, with A549 NSCLC, in the assay with UO-31 renal and with SK-OV-3 ovarian was > 100 µM throughout.
For the compound `O=Cc1ccc(-c2cccs2)s1`, the TGI was > 100 µM with MOLT-4 leukemia; > 100 µM with 786-0 renal; > 92.4 µM in the assay with NCI-H460 lung; > 100 µM in the assay on SF-268 CNS; > 100 µM with HOP-62 NSCLC; > 77 µM in the assay with OVCAR-4 ovarian. Moreover, the TGI with NCI-H522 lung, in the assay on A549 NSCLC, with UO-31 renal and with SK-OV-3 ovarian was > 100 µM in each case.
On to `COc1cc(Cn2c(-c3nonc3N)nc3ccccc32)ccc1C`, for which the GI50 with MOLT-4 leukemia is 0.692 µM; with 786-0 renal, 0.55 µM; in the assay with NCI-H460 lung, 0.377 µM; with SF-268 CNS, 0.825 µM; in the assay with HOP-62 NSCLC it was 0.568 µM; in the assay on OVCAR-4 ovarian it was 0.731 µM. Moreover, the GI50 was 0.243 µM in the assay on NCI-H522 lung, 0.625 µM with A549 NSCLC, 0.58 µM in the assay with UO-31 renal and 0.493 µM in the assay with SK-OV-3 ovarian. For the same compound, the TGI was > 100 µM with MOLT-4 leukemia; 23.6 µM with 786-0 renal; > 100 µM in the assay with NCI-H460 lung; > 100 µM in the assay on SF-268 CNS; 21.3 µM in the assay with HOP-62 NSCLC; > 95.2 µM with OVCAR-4 ovarian. Also, the TGI in the assay on NCI-H522 lung was 0.735 µM; with A549 NSCLC, > 100 µM; with UO-31 renal, > 100 µM; in the assay on SK-OV-3 ovarian, 32 µM.
For `O=[N+]([O-])c1ccc2c(c1)[O][Sn]([I])([I])[O]2`, the GI50 was 68.4 µM in the assay on MOLT-4 leukemia; > 100 µM in the assay on 786-0 renal; > 100 µM in the assay with NCI-H460 lung; > 100 µM in the assay with SF-268 CNS; > 100 µM with HOP-62 NSCLC; > 100 µM with OVCAR-4 ovarian. Moreover, the GI50 in the assay with NCI-H522 lung is 61.4 µM; in the assay on A549 NSCLC, > 100 µM; with UO-31 renal, > 100 µM; with SK-OV-3 ovarian, > 100 µM. The TGI with MOLT-4 leukemia, in the assay with 786-0 renal, in the assay with NCI-H460 lung, with SF-268 CNS, in the assay on HOP-62 NSCLC and with OVCAR-4 ovarian was > 100 µM in each case. The TGI with NCI-H522 lung, in the assay with A549 NSCLC, in the assay on UO-31 renal and with SK-OV-3 ovarian was > 100 µM throughout.
`Cn1cc(CNCC2CCN(c3ncc(C(=O)NO)cn3)CC2)c2ccccc21`: the GI50 in the assay with MOLT-4 leukemia is < 0.0135 µM; in the assay on 786-0 renal, 0.0414 µM; in the assay with NCI-H460 lung it was 0.0131 µM; in the assay with SF-268 CNS, 0.0259 µM; in the assay on HOP-62 NSCLC, 0.0128 µM; with OVCAR-4 ovarian, 0.0155 µM. In addition, the GI50 with NCI-H522 lung is < 0.01 µM; with A549 NSCLC, 0.0123 µM; in the assay on UO-31 renal, 0.0247 µM; in the assay on SK-OV-3 ovarian it was 0.0199 µM. Further, the TGI in the assay with MOLT-4 leukemia is > 52.7 µM; in the assay on 786-0 renal, 8.89 µM; with NCI-H460 lung, 11.5 µM; with SF-268 CNS, 0.896 µM; with HOP-62 NSCLC, 0.838 µM; in the assay with OVCAR-4 ovarian, 52.1 µM. The TGI in the assay on NCI-H522 lung worked out at 0.0615 µM; with A549 NSCLC it was 0.519 µM; in the assay with UO-31 renal, 0.447 µM; with SK-OV-3 ovarian it was 0.361 µM.
Take `CCN(CC)c1ccc2c(c1)Nc1cc(=C(C#N)C#N)c3ccccc3c1=N2`: the TGI in the assay on MOLT-4 leukemia, in the assay with 786-0 renal, in the assay on NCI-H460 lung, in the assay with SF-268 CNS, in the assay on HOP-62 NSCLC and with OVCAR-4 ovarian was > 100 µM each time. In addition, the TGI in the assay on NCI-H522 lung, in the assay with A549 NSCLC, with UO-31 renal and in the assay on SK-OV-3 ovarian was > 100 µM in each case.
Turning to `Cc1cc(-c2nnc3n2CCCCC3)c(C)n1-c1ccc(Cl)c(Cl)c1`, the GI50 was 15 µM in the assay with MOLT-4 leukemia; 22.9 µM with 786-0 renal; 17.4 µM with NCI-H460 lung; 17.8 µM with SF-268 CNS; 16.8 µM with HOP-62 NSCLC; 8.4 µM in the assay with OVCAR-4 ovarian. Further, the GI50 in the assay with NCI-H522 lung was 12.6 µM; in the assay on A549 NSCLC it was 16.8 µM; in the assay with UO-31 renal it was 12.6 µM; in the assay with SK-OV-3 ovarian it was 19.2 µM. The TGI in the assay with MOLT-4 leukemia came out at 42.9 µM; in the assay on 786-0 renal, 56.7 µM; in the assay with NCI-H460 lung it was 45.7 µM; in the assay on SF-268 CNS, 36.6 µM; in the assay with HOP-62 NSCLC it was 32.4 µM; in the assay on OVCAR-4 ovarian it was 57.5 µM. Further, the TGI in the assay on NCI-H522 lung was 28.3 µM; in the assay on A549 NSCLC, 65.8 µM; with UO-31 renal it was 36.7 µM; in the assay with SK-OV-3 ovarian it was 45.7 µM.
